Assays:
[1] = Aqueous solubility; type: physicochemical; conditions: qualitative statement
[2] = type: in vitro ADME; conditions: data not shown
[3] = type: in vitro ADME, human; conditions: 1 μM, 37°C, LC-MS/MS
[4] = system: neutrophil influx; assay: Ozone rat model of pulmonary inflammation; type: in vivo, Sprague-Dawley rats
[5] = type: in vivo; conditions: DPS vehicle

Structure (SMILES) | Aqueous solubility [1] | Stability in rat plasma (6 vs 7) [2] | Human Plasma stability (% remaining) 1 hr [3] [% remaining] | Human Plasma stability (% remaining) 4 hr [3] [% remaining] | Human Plasma stability (% remaining) 24 hr [3] [% remaining] | Effectiveness at reducing neutrophil influx relative to 6 ([4]; single IV dose 1 mg/kg, ozone model, side-by-side with 6) | Rat PK AUC @ 1 mg/kg IV [5] [µM·h] | Reduction of neutrophil influx (BALF) ([4]; single IV dose 1 mg/kg at t = 0, 1 ppm ozone 4 hours, BALF at 24 hours)
CN(Cc1ccc(B(O)O)cn1)c1ccc(C(=O)Nc2ccc(F)cc2)cn1 [Compound 22] | improved aqueous solubility | – | – | – | – | – | – | –
CN(Cc1ccc(B(O)O)cn1)c1ncc(C(=O)Nc2ccc(F)cc2)cn1 [Compound 23] | improved aqueous solubility | – | – | – | – | – | – | –
O=C(Nc1ccc(F)cc1)c1cnc(N(Cc2ccccc2)Cc2ccc(B(O)O)cn2)nc1 [Compound 7, (2-{(Benzyl)[(5-boronic acid-2-pyridyl)methyl]amino}-5-pyrimidinyl)(4-fluorophenylamino)formaldehyde] | – | no significant difference | 90 | 71 | 62 | twice as effective | – | –
O=C(Nc1ccc(F)cc1)c1ccc(SCc2cc(OC(F)(F)F)ccc2B(O)O)nc1 [Compound 6, 6-(2-boronic acid-5-trifluoromethoxy-benzylsulfanyl)-N-(4-fluoro-phenyl)-nicotinamide] | – | no significant difference | 62 | 34 | 2 | – | 5.40 | modest reduction in neutrophil influx

From paper PMC4564001 (Bioorganic & medicinal chemistry letters, 2015)
